Results: US7517840B2, “Optimized perfumery for rinse-off products” (Givaudan Fragrances Corporation, priority 2005, dated 2009)
“And” between values parts separate entries of the source, which are not always exact repeats. Identical values can stand only once. Like-named read-outs stand apart in the source and are kept apart here.

Tests used:
[1] = cited from earlier work; for exp ODT water: Booleans database; for Odor Detection Threshold: Table 24, Floral fragrance
[2] = GC-MS headspace release profile of perfume in shampoo, 1/100 dilution in water; format: physicochemical; details: Tropical Fruit Perfume
Description: Experimental Procedure: Individual odorant to be tested was added to 20 g of shampoo formulation (see formula below in Table 4) at 0.1%.
A 10 gram sample of formulation and fragrance was added to an empty 1000 ml pyrex beaker. This beaker was then filled with 1000 ml of 120 F tap water. Beaker with diluted shampoo sample was then immediately placed into a semi-enclosed plexiglass chamber.
Headspace Sampling: Once beaker was placed into chamber a Carboxan SPME field fiber was held at the top-side opening of the chamber over the beaker containing the sample. […] […] Top of plexiglass chamber was held open for entire 5 minutes of headspace sampling.

Row | Compound | GC Abundance ([2]; 40 seconds) | GC Abundance ([2]; 50 seconds) | also measured
1 | CCC(=O)OC/C=C(\C)CCC=C(C)C [trans-3,7-Dimethyl-2,6-octadien-1-yl propanoate] |  |  | exp ODT water [1]: 10 ppb
2 | CC(C)c1cccc(C(C)CC=O)c1 (stereo not drawn) [FLORHYDRAL] | 9000 | 10000 | Odor Detection Threshold [1]: 50 ppb or less
3 | OCc1ccccc1 [BENZYL ALCOHOL] | 50 | 100 | 
4 | O=C1CCCCCCCCCCCC(=O)OCCO1 [ETHYLENE BRASSYLATE] |  | 20 | 
5 | CC=Cc1ccc(O)c(OC)c1 [1-Hydroxy-2-methoxy-4-propenylbenzene] |  |  | exp ODT water [1]: 30-40 ppb
6 | CCCCCCC(C=O)=Cc1ccccc1 [HEXYL CINNAMIC ALDEHYDE, hexyl cinnamic aldehyde] | 2000 | 9000 | 
7 | CCC(=O)OCc1ccccc1 [BENZYL PROPIONATE] | 6000 | 6000 | GC Abundance ([2]; 20 seconds): 2000; GC Abundance ([2]; 30 seconds): 6000
8 | Cc1ccc2c(c1)OCC(=O)CO2 [CALONE] |  | 1000 | 
9 | CC/C=C\CCO [CIS-3-HEXEN-1-OL] | 14000 | 14000 | GC Abundance ([2]; 20 seconds): 14000; GC Abundance ([2]; 30 seconds): 14000
10 | CCCCCOC(C)=O [Pentyl Acetate] |  |  | exp ODT water [1]: 43 ppb
11 | CC(=O)OCc1ccccc1 [BENZYL ACETATE] | 18000 | 18000 | GC Abundance ([2]; 20 seconds): 12000; GC Abundance ([2]; 30 seconds): 17000
12 | CC(C)=CCCC(C)CCCC(C)C=O (stereo not drawn) [ADOXAL, 2,6,10-Trimethyl-9-undecenal] | 300 | 3000 | 
13 | CC(=O)OC(C)(C)C1CC=C(C)CC1 (stereo not drawn) [TERPINYL ACETATE] | 9000 | 9000 | GC Abundance ([2]; 30 seconds): 1000
14 | CC(=O)OC1CC2CC1C1CC=CC21 (stereo not drawn) |  |  | Odor Detection Threshold [1]: 50 ppb or less
15 | CCCCCCC1CCC(=O)O1 (stereo not drawn) [GAMMA-DECALACTONE, 5-Hexyldihydro-2(3H)-furanone] | 4000 | 7000 | 
16 | COc1cc(C=O)ccc1O [VANILLIN NF, 4-Hydroxy-3-methoxybenzaldehyde] |  |  | exp ODT water [1]: 25-58 ppb and 20-200 ppb
17 | VERTOFIX COEUR |  | 50 | 
18 | CCOC(=O)C1OC1(C)c1ccccc1 (stereo not drawn) [Ethyl 2,3-epoxy-3-methyl-3-phenylpropionate] |  |  | exp ODT water [1]: 25 ppb
19 | CC(=O)OC1CCC(C(C)(C)C)CC1 (stereo not drawn) [VERTENEX HC] | 8000 | 10000 | GC Abundance ([2]; 30 seconds): 2000
20 | CC(C)=CCCC(C)C=O (stereo not drawn) [MELONAL, 2,6-Dimethyl-5-heptenal] |  |  | exp ODT water [1]: 16 ppb; ODT ([1]; Table 26, cucumber-melon note): 50 ppb or less; odor detection threshold values in water [1]: 16 ppb
21 | C/C=C/C(=O)C1C(C)C=CCC1(C)C (stereo not drawn) [δ-DAMASCONE] |  |  | ODT ([1]; Table 28, fig note): 50 ppb or less
22 | CC1=CCC(CCC(C)C(C)O)C1(C)C (stereo not drawn) [SANDALORE] |  | 2000 | 
23 | COC(=O)c1c(C)cc(O)c(C)c1O [METHYL ATRATATE] |  | 50 | 
24 | C=CCOC(=O)CCCCCC [ALLYL HEPTOATE] | 12000 | 12000 | GC Abundance ([2]; 20 seconds): 4000; GC Abundance ([2]; 30 seconds): 10000
25 | CCCCCC1CCC(=O)O1 (stereo not drawn) [ALDEHYDE C-18] | 4000 | 4000 | GC Abundance ([2]; 20 seconds): 2000; GC Abundance ([2]; 30 seconds): 2000
26 | C=CCOC(=O)CCC1CCCCC1 [ALLYL CYCLOHEXYL PROPIONATE] | 7000 | 10000 | 

Row | Compound | GC Abundance ([2]; 40 seconds) | GC Abundance ([2]; 50 seconds) | also measured
27 | CCCCCOC(=O)CCC [Pentyl butyrate] |  |  | exp ODT water [1]: 44-87 ppb
28 | O=C1CCCCCCCCCCCCCCO1 [EXALTOLIDE TOTAL] |  | 50 | 
29 | C=CC(C)(O)CCC=C(C)CC (mixture of isomers) [ETHYL LINALOOL] | 10000 | 10000 | GC Abundance ([2]; 20 seconds): 5000; GC Abundance ([2]; 30 seconds): 10000
30 | CC(=O)/C=C/C1C(C)=CCCC1(C)C (stereo not drawn) [IONONE ALPHA, alpha ionone] |  |  | exp ODT water [1]: 0.4-10 ppb
31 | CC/C=C\CCOC(=O)OC [LIFFAROME] | 3000 | 3000 | GC Abundance ([2]; 20 seconds): 3000; GC Abundance ([2]; 30 seconds): 3000
32 | CC(C=O)Cc1ccc2c(c1)OCO2 (stereo not drawn) [HELIONAL] | 500 | 5000 | 
33 | C=CC(C)CCCC(C)(C)O (stereo not drawn) [DIHYDROMYRCENOL] | 15000 | 15000 | GC Abundance ([2]; 10 seconds): 500; GC Abundance ([2]; 20 seconds): 15000; GC Abundance ([2]; 30 seconds): 15000
34 | CC(C)CC1CC(C)(O)CCO1 (stereo not drawn) [FLOROL] | 10000 | 15000 | 
35 | CC/C(=C\CC1CC=C(C)C1(C)C)CO (stereo not drawn) [BACDANOL] | 100 | 5000 | 
36 | CCC(C)(O)CCC=C(C)C (stereo not drawn) [DIHYDROLINALOOL] | 3000 | 3000 | GC Abundance ([2]; 20 seconds): 3000; GC Abundance ([2]; 30 seconds): 3000
37 | Cc1ccc(C(C)C)c(O)c1 [5-Methyl-2-isopropylphenol] |  |  | exp ODT water [1]: 400 ppb
38 | CCCCOC(C)=O [Butyl acetate] |  |  | exp ODT water [1]: 44-88 ppb
39 | C=C(C)C1CC=C(C)C(=O)C1 (stereo not drawn) [I-1-Methyl-4-isopropenyl-6-cyclohexen-2-one] |  |  | exp ODT water [1]: 50 ppb
40 | CC(=O)OC(C)(C)Cc1ccccc1 [DIMETHYL BENZYL CARBINYL ACETATE] | 8000 | 8000 | GC Abundance ([2]; 30 seconds): 2000
41 | C/C=C/C(=O)C1=C(C)CCCC1(C)C [BETA DAMASCONE FAB, β-damascone] |  |  | Odor Detection Threshold [1]: 50 ppb or less; ODT ([1]; Table 30, berry note): 50 ppb or less
42 | CC1(C)CCC[C@]2(C)[C@H]3CCO[C@]3(C)CC[C@@H]12 [AMBROXAN] |  | 1000 | 
43 | COC(=O)c1ccccc1N [METHYL AN[…], METHYL ANTHRANILATE] |  |  | Odor Detection Threshold [1]: 50 ppb or less
44 | CC1OC(C)C2Cc3ccccc3C2O1 (stereo not drawn) [MAGNOLAN/CORPS 719] | 1000 | 3000 | 
45 | CC(C)=CCCC(C)CCO (stereo not drawn) [CITRONELLOL AJ, FCC, CITRONELLOL] | 7000 | 7000 | GC Abundance ([2]; 20 seconds): 7000; GC Abundance ([2]; 30 seconds): 7000
46 | CC/C=C\CCOC(C)=O [CIS-3-HEXENYL ACETATE] | 14000 | 14000 | GC Abundance ([2]; 20 seconds): 5000; GC Abundance ([2]; 30 seconds): 14000
47 | CCCCCCCCCC=CC=O [MANDARIN ALDEHYDE] |  |  | ODT ([1]; Table 32, citrus note): 50 ppb or less
48 | CCOC(=O)C1OC1c1ccccc1 (stereo not drawn) [ETHYL PHENYL GLYCIDATE] |  |  | ODT ([1]; Table 30, berry note): 50 ppb or less
49 | CCCCCCCC=O [1-Octanal] |  |  | exp ODT water [1]: 30 ppb
50 | CC1=C(O)C(=O)C(C)O1 (stereo not drawn) [STRAWBERRY FURANONE] |  |  | ODT ([1]; Table 30, berry note): 50 ppb or less
51 | CCC=C(C)C(O)CCCCC (stereo not drawn) [UNDECAVERTOL, 4-Methyl-3-decen-5-ol] | 10000 | 10000 | 
52 | CC1=CC(C)C(C=O)CC1 (stereo not drawn) [TRIPLAL] | 10000 | 6000 | GC Abundance ([2]; 10 seconds): 1000; GC Abundance ([2]; 20 seconds): 14000; GC Abundance ([2]; 30 seconds): 14000
